Results as given in patent US5565561A, “Natural substance cyclamenol and chemical derivatives” (Bayer Aktiengesellschaft, priority 1992, dated 1996).

Assays:
infarcted cardiac tissue = assay: Reduction of the infarct size in the rat infarct model; type: in vivo, Wistar rats; details: 1 mg/kg each before occlusion and before reperfusion, jugular vein infusion; average and standard deviation, 11 rats
Procedure: After a 5-minute post-operative recovery phase, the compound from Example 1 in a dose of 1 mg/kg dissolved in 100% DMSO or solvents was infused for 6 min into the catheterized jugular vein of the ventilated rats and the coronary artery was occluded for 30 min. At the 25 minute point of the occlusion, the second administration of the compound from Example 1 or solvent is carried out under the conditions described above. After the end of the infusion and occulsion phase, the ligature was opened and the heart was reperfused for 90 min.
For histological staining of the infarcted cardiac tissue, the heart was perfused ex vivo retrogressively with triphenyltetrazolium chloride (TTC, 1.5%) in 20 mM potassium phosphate buffer for 15 min and with 0.9% NaCl for 10 min at 37° C. and at a perfusion pressure of 100 mm Hg. The infarct sizes were calculated in percent by weight of infarcted to non-infarcted tissue and indicated in percent as average values and their standard deviations of 11 rats treated with the compound from Example 1 and of 11 treated with solvent.

[1] = system: Leucocyte adhesion in small venules; assay: Leucocyte adhesion in small venules of the hamster cheek pouch; type: in vivo; details: Mesocricetus auratus, iv, adhesion caused by the preparation, read-out: dose from which leucocyte adhesion is significantly reduced
Excerpt: (§1) 3. Leucocyte adhesion in small venules was investigated in the hamster cheek pouch (preparation according to Duling, MVR 5, 423-429, 1973). An increased adhesion is caused by the preparatory preparation of the cheek pouch. […] The determination of the myeloperoxidase activity as a direct measure of the accumulation of neutrophilic leucocytes gives increases of around 80-100% compared to the control.

[2] = system: myeloperoxidase activity (accumulation of neutrophilic leucocytes); assay: LTB4-superfused hamster cheek pouch, myeloperoxidase activity as measure of accumulation of neutrophilic leucocytes; type: in vivo; details: 1 mg/kg i.v.; cheek pouch superfused with LTB4 for 10 min
Excerpt: as §1

[3] = target: T1, Myeloperoxidase from human polymorphonuclear neutrophils (Homo sapiens, UniProt P05164); assay: Inhibition of myeloperoxidase activity (ortho-dianisidine/H2O2, absorbance at 490 nm); type: biochemical; details: pH 6.0, 30° C.
T1 construct: The latter were isolated from fresh venous whole blood; endogenous in cells; host or cells: human polymorphonuclear neutrophils isolated from fresh venous whole blood; lysed with cetyltrimethylammonium bromide, 40,000 g supernatant
T1 sequence (P05164 279-745 limits assumed): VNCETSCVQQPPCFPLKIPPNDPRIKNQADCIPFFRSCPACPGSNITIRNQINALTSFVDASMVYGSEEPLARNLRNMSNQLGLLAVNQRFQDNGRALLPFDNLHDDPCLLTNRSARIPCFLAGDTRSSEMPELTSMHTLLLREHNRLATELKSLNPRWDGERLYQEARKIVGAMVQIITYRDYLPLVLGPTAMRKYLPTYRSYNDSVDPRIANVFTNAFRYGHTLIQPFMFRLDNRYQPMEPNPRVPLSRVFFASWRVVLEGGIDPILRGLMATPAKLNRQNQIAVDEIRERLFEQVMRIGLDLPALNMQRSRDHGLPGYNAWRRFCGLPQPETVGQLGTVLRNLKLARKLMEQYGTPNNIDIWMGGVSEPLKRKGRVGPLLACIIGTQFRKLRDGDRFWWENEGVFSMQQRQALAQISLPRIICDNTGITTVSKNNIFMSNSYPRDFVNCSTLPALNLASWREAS
T1 sequence (P05164 165-278 limits assumed): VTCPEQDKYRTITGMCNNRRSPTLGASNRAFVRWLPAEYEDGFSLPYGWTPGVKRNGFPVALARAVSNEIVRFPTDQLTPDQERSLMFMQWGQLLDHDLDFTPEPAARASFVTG
Procedure: Myeloperoxidase from human polymorphonuclear neutrophils was used for the measurements. The latter were isolated from fresh venous whole blood according to the method of D. English and B. R. Andersen, Journal of Immunological Methods 5, (1974) 249-252.
10^7 cells were lysed at 0° C. for 10 min using 1 ml of 0.5% cetyltrimethylammonium bromide in 50 mmol/l sodium phosphate buffer pH 6.0, frozen and directly thawed again. This process was repeated twice. The suspension was then centrifuged at 40,000 g for 10 min. The supernatant was diluted with 50 mmol/l sodium phosphate buffer pH 6.0 according to its myeloperoxidase activity and used for the tests.
To carry out the tests, 10 μl of test sample are added to a dimethyl sulphoxide-containing solution (max. v/v 30%) with 30 μl of the myeloperoxidase solution prepared as described above=1-2.5 μg of protein, in a microtitre plate (Greiner) with a smooth bottom. The reaction is started by addition of a test mixture consisting of 250 μl of 50 mmol/l sodium phosphate buffer pH 6.0, 10 μl of 0.5×10^-3 mmol/l H2 O2 and 10 μl of 2.5×10^-2 mol/l ortho-dianisidine in dimethyl sulphoxide. The increase in the absorbance is measured at 490 nm in an Elisa reader at 30° C. 6 measurements are carried out at an interval of 2 min and the increase in absorbance per minute is calculated. A control which instead of a test sample contains only the corresponding amount of dimethyl sulphoxide is prepared as the 100% value and then the inhibition by the sample is calculated. All measurements are carried out as a triplicate determination.

## CC1C=CC=CC=CC=CC(O)CC=CC=CC=CC(=O)NC1 (centres unmarked) [Example 1, Cyclamenol]
Infarcted cardiac tissue
  reduction of infarct size: 12.2±4.8%
  reduction of infarct size (first value): 19.0±6.0%
[1]
  minimal effective dose: ≥ 0.1 mg/kg
[2]
  effect on the rise in MPO activity: prevents the rise in the MPO activity
[3]; 0.1 μmol/l
  inhibition at 0.1 µM: 12%
[3]; 1 μmol/l
  inhibition at 1 µM: 28%
[3]; 10 μmol/l
  inhibition at 10 µM: 45%
[3]; 50 μmol/l
  inhibition at 50 µM: 60%
